{"source": "patent EP1808169B1", "about": "“Polyhydroxylated aromatic compounds for the treatment of amyloidosis and alpha-synuclein fibril diseases” (priority 1999, dated 2001)", "key": {"Aβ 1-42 amyloid fibrils": {"tested_on": "Aβ 1-42 amyloid fibrils", "test": "Thioflavin T fluorometry: disassembly/disruption of pre-formed Aβ 1-42 amyloid fibrils", "assay_type": "biochemical", "settings": "overnight (~18 hours) at 37°C, pH 7.0, mean of triplicate ± standard deviation", "protocol": "For the first study, 1 mg of Aβ 1-42 (Bachem Inc., Torrance, CA, USA) was dissolved in 1.0 ml of double distilled water (1 mg/ml solution). 25 µM of Aβ 1-42 was then incubated overnight (~18 hours) at 37°C, in the absence or presence of 100µg/ml of the following compounds: 1) EDTA (Sigma Chemical Company, St. Louis, MO, USA), 2) myricetin (Acros, Somerville, New Jersey, USA), 3) exifone (Acros) 4) pyrogallol (Sigma), 5) tannic acid (Acros), 6) pyrocatechol (Acros), 7) quercetin (Sigma), 8) ellagic acid (Acros), 9) 1,2,4-benzenetriol (Acros), 10) 5-hydroxydopamine (Acros), 11) gallamide hydrate (Acros), 12) gallic acid (Sigma), 13) ethyl gallate (Acros), 14) quinic acid (Acros), 15) propyl gallate (Sigma), and 16) phloroglucide (Acros), each in the presence of 150 mM Tris HCl, 10 mM NaCl (pH 7.0) with 0.02% sodium azide. In this study, the Aβ 1-42:compound weight ratio was 1:1.\nFor the second study, 1 mg of Aβ 1-42 (Bachem) was dissolved in 1.0 ml of double distilled water (1 mg/ml solution). 25 µM of Aβ 1-42 was then incubated overnight (~18 hours) at 37°C, in the absence or presence of 50µg/ml of the following compounds: 1) gallic acid, 2) ethyl gallate, 3) quinic acid, 4) gallamide trihydrate, 5) ellagic acid, 6) propyl gallate, and 7) pyrogallol, each in the presence of 150 mM Tris HCl, 10 mM NaCl (pH 7.0) with 0.02% sodium azide. In this study, the Aβ 1-42:compound weight ratio was 2:1.\nThioflavin T is known to bind to fibrillar amyloid proteins, and an increase in fluorescence correlates with an increase in amyloid fibril formation, whereas a decrease in fluorescence correlates with a decrease in amyloid fibrils due to disassembly and/or disruption. The Alzheimer's Aβ protein (1-42) when placed in solution, such as distilled water, tends to spontaneously form amyloid fibrils. Using this sensitive assay, any decreases or increases in fluorescence was previously shown to correlate with a decrease or increase in the amount of amyloid fibrils (see the documents cited above), allowing one to identify and quantitate the extent of potential inhibitors and/or enhancers of Alzheimer's Aβ 1-42 amyloid fibrils.\nTo assess the effects of each compound on potential disassembly/ disruption of preformed Aβ 1-42 fibrils, 50 µl of Aβ 1-42 with or without test compounds (described above) were added to 1.2 ml of 100µM Thioflavin T (Sigma) in 50mM NaH2PO4 (pH 6.0) for fluorometry readings. […] Fluorescence emission at 482 nm was measured on a Turner instrument-model 450 fluorometer at an excitation wavelength of 450 nm. For each determination, the fluorometer was calibrated by zeroing in the presence of the Thioflavin T reagent alone, and by setting the 50 ng/ml riboflavin (Sigma Chemical Co., St. Louis, MO) in the Thioflavin T reagent to 1800 fluorescence units. All fluorescence determinations were based on these references and any fluorescence given off by any of the compounds in the presence of the Thioflavin T reagent was always subtracted from all pertinent readings.\nFor all fibrillogenesis studies utilizing Thioflavin T fluorometry, as disclosed herein, comparisons of amyloid protein in the presence or absence of test compounds were based on paired Student's t tests with data shown as the mean of triplicate measurements ± standard deviation."}, "Aβ 1-40 amyloid fibrils": {"tested_on": "Aβ 1-40 amyloid fibrils", "test": "Modified Congo red-Aβ spectrophotometric assay: dose-dependent disaggregation of fibrillized Aβ 1-40 (overnight incubation)", "assay_type": "biochemical", "settings": "overnight (~18 hours) at 37°C", "protocol": "In this study, a Congo red-Aβ spectrophotometric assay (Klunk et al., Anal. Biochem. 266:66-76, 1999) was modified to determine the effectiveness of polyhydroxylated aromatic compounds on the disaggregation of pre-formed Aβ 1-40 amyloid fibrils. For this assay, 1 mg of Aβ 1-40 (Bachem) was incubated for 4 days in distilled water at 37°C to spontaneously produce amyloid fibrils. 25pM of fibrillized Aβ 1-40 was then incubated in triplicate with various test compounds for 3 days at 37°C in Tris-buffered saline (TBS)(100 mM Tris; 50 mM NaCl; pH 7.0, with 0.02% sodium azide), at an Aβ:compound weight ratio of 2:1. Following incubation, 50µl of 360 µM Congo red (Sigma) in distilled water was then added to 250 µl of each incubation mixture, giving a final Aβ:Congo red molar ratio of 1:3. After 10 minutes, the absorbance at 405 nm (reference wavelength to account for the absorbance of Congo red alone at 540 nm) and 540 nm (sample absorbance where \"sample\" refers to Aβ alone, test compound alone, or Aβ plus test compound, all in the presence of Congo red) was determined using a Biorad Model 550 BLISA Plate Reader (Biorad, Hercules, CA, USA). The absorbance at wavelength 405 nm was automatically subtracted by the ELISA plate reader from the absorbance at wavelength 540 nm (difference is referred to as Δ absorbance)(see Klunk et al. cited above). Therefore, the Δ absorbance reading at 540 nm was proportional to the amount of aggregated Aβ left in solution (Klunk et al.).\nFor all experiments involving test compounds, the Δ absorbance reading at 540 nm of the test compound alone (in the absence of Aβ), was always subtracted from the corresponding Δ absorbance reading at 540 nm of the test compound in the presence of Aβ. Using this modification of the method of Klunk et al., the use of a greater final concentration of Congo red, i.e. 60µM instead of 14µM, in the presence of fibrillar Aβ gave an overall absorbance at 540 nm that was always below 1.0 Absorbance Unit (AU), and well within the linear absorbance range.\nIn this study, the potential dose-dependent effects of tannic acid and gallic acid on the disaggregation of fibrillized Aβ 1-40 was assessed. In this experiment, the modified Congo red-Aβ spectrophotometric assay (Klunk et al, Anal. Biochem. 266:66-76, 1999) was used as described above (i.e. Example 4). However, in this specific experiment increasing amounts of tannic acid or gallic acid (i.e. 25µg/ml, 50µg/ml, 75µg/ml and 100µg/ml) were tested following an overnight (~18 hours) incubation at 37°C in the presence of 25pM of Aβ 1.40 (Bachem)."}, "[1]": {"settings": "w/w ratio 2:1 (50µg/ml compound)"}, "[2]": {"settings": "w/w ratio 4:1 (25µg/ml compound)"}, "[3]": {"settings": "w/w ratio 4:3 (75µg/ml compound)"}}, "data": [{"compound": "O=C(O)c1cc(O)c(O)c(O)c1", "note": "[Gallic acid, gallic acid]", "values": [{"measurement": "Fluorescence inhibition, %, at the Aβ 1-42:compound w/w ratios given", "setting": "Aβ 1-42 amyloid fibrils; Aβ 1-42:compound w/w ratio 2:1, 25 µM Aβ 1-42, 50µg/ml compound", "value": "44 ± 1.7", "unit": "%"}, {"measurement": "Decrease in absorbance, %, at the Aβ 1-40:compound w/w ratios given", "setting": "Aβ 1-40 amyloid fibrils; [1]", "value": "22 ± 4.0", "unit": "%"}, {"measurement": "Decrease in absorbance, %, at the Aβ 1-40:compound w/w ratios given", "setting": "Aβ 1-40 amyloid fibrils; [2]", "value": "17 ± 9.5", "unit": "%"}, {"measurement": "Decrease in absorbance, %, at the Aβ 1-40:compound w/w ratios given", "setting": "Aβ 1-40 amyloid fibrils; [3]", "value": "30 ± 6.0", "unit": "%"}]}, {"compound": "O=C(OC[C@H]1O[C@@H](OC(=O)c2cc(O)c(O)c(OC(=O)c3cc(O)c(O)c(O)c3)c2)[C@H](OC(=O)c2cc(O)c(O)c(OC(=O)c3cc(O)c(O)c(O)c3)c2)[C@@H](OC(=O)c2cc(O)c(O)c(OC(=O)c3cc(O)c(O)c(O)c3)c2)[C@@H]1OC(=O)c1cc(O)c(O)c(OC(=O)c2cc(O)c(O)c(O)c2)c1)c1cc(O)c(O)c(OC(=O)c2cc(O)c(O)c(O)c2)c1", "note": "[Tannic acid, tannic acid]", "values": [{"measurement": "Fluorescence inhibition, %, at the Aβ 1-42:compound w/w ratios given", "setting": "Aβ 1-42 amyloid fibrils; Aβ 1-42:compound w/w ratio 1:1, 25 µM Aβ 1-42, 100µg/ml compound", "value": "77 ± 1.3", "unit": "%"}, {"measurement": "Decrease in absorbance, %, at the Aβ 1-40:compound w/w ratios given", "setting": "Aβ 1-40 amyloid fibrils; w/w ratio 1:1 (100µg/ml compound)", "value": "61 ± 11.1", "unit": "%"}, {"measurement": "Decrease in absorbance, %, at the Aβ 1-40:compound w/w ratios given", "setting": "Aβ 1-40 amyloid fibrils; [1]", "value": "48 ± 6.8", "unit": "%"}, {"measurement": "Decrease in absorbance, %, at the Aβ 1-40:compound w/w ratios given", "setting": "Aβ 1-40 amyloid fibrils; [2]", "value": "42 ± 5.2", "unit": "%"}, {"measurement": "Decrease in absorbance, %, at the Aβ 1-40:compound w/w ratios given", "setting": "Aβ 1-40 amyloid fibrils; [3]", "value": "59 ± 6.4", "unit": "%"}]}]}
